Measured values from patent US9302999B2, “Substituted triazoles as herbicides” (E. I. DU PONT DE NEMOURS AND COMPANY, priority 2012, dated 2016).

Tests used:
Assay type in all cases: in vivo
[1] = system: rice (Oryza sativa); test: Test C flooded paddy test: rice; conditions: scale 0 to 100 (0 no effect, 100 complete control)
Text: (§1) Plant species in the flooded paddy test consisted of rice (Oryza sativa), sedge, umbrella (small-flower umbrella sedge, Cyperus difformis), ducksalad (Heteranthera limosa) and barnyardgrass (Echinochloa crus-galli) grown to the 2-leaf stage for testing. At time of treatment, test pots were flooded to 3 cm above the soil surface, treated by application of test compounds directly to the paddy water, and then maintained at that water depth for the duration of the test.
(§2) Treated plants and controls were maintained in a greenhouse for 13 to 15 days, after which time all species were compared to controls and visually evaluated. Plant response ratings, summarized in Table C, are based on a scale of 0 to 100 where 0 is no effect and 100 is complete control. A dash (-) response means no test result.

[2] = system: sedge, umbrella (small-flower umbrella sedge, Cyperus difformis); test: Test C flooded paddy test: sedge, umbrella; conditions: scale 0 to 100 (0 no effect, 100 complete control)
Text: as §1, §2

[3] = system: barnyardgrass (Echinochloa crus-galli); test: Test A pre-/postemergence: barnyardgrass; conditions: for Barnyardgrass plant response rating: Postemergence; for Plant response rating, Barnyardgrass: Preemergence
Outline: (§3)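 Visual 0–100 injury ratings (0 no effect, 100 complete control) taken about ten days after treatment, relative to untreated controls. Preemergence treatment was a directed soil spray; postemergence plants were 2–10 cm tall at one- to two-leaf stage. Soil: loam/sand blend.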

[4] = system: barnyardgrass (Echinochloa crus-galli); test: Test C flooded paddy test: barnyardgrass; conditions: scale 0 to 100 (0 no effect, 100 complete control)
Text: as §1, §2

[5] = system: foxtail, giant (giant foxtail, Setaria faberii); test: Test A pre-/postemergence: foxtail, giant; conditions: for Foxtail, Giant plant response rating: Postemergence; for Plant response rating, Foxtail, Giant: Preemergence
Outline: as §3

[6] = system: pigweed (Amaranthus retroflexus); test: Test A pre-/postemergence: pigweed; conditions: for Pigweed plant response rating: Postemergence; for Plant response rating, Pigweed: Preemergence
Outline: as §3

[7] = system: wheat (Triticum aestivum); test: Test A pre-/postemergence: wheat; conditions: for Wheat plant response rating: Postemergence; for Plant response rating, Wheat: Preemergence
Outline: as §3

[8] = system: ducksalad (Heteranthera limosa); test: Test C flooded paddy test: ducksalad; conditions: scale 0 to 100 (0 no effect, 100 complete control)
Text: as §1, §2

[9] = system: corn (Zea mays); test: Test A pre-/postemergence: corn; conditions: for Corn plant response rating: Postemergence; for Plant response rating, Corn: Preemergence
Outline: as §3

[10] = system: velvetleaf (Abutilon theophrasti); test: Test A pre-/postemergence: velvetleaf; conditions: for Velvetleaf plant response rating: Postemergence; for Plant response rating, Velvetleaf: Preemergence
Outline: as §3

[11] = system: crabgrass, large (large crabgrass, Digitaria sanguinalis); test: Test A pre-/postemergence: crabgrass, large; conditions: for Crabgrass, Large plant response rating: Postemergence; for Plant response rating, Crabgrass, Large: Preemergence
Outline: as §3

[12] = system: morningglory (Ipomoea spp.); test: Test A pre-/postemergence: morningglory; conditions: for Morningglory plant response rating: Postemergence; for Plant response rating, Morningglory: Preemergence
Outline: as §3

[13] = Flood (flooded paddy test), 62 g ai/ha, visual rating after 13 to 15 days
[14] = Flood (flooded paddy test), 250 g ai/ha, visual rating after 13 to 15 days
[15] = 125 g ai/ha, 0 to 100 scale, 0 is no effect, 100 is complete control
[16] = 500 g ai/ha, visual rating on 0 to 100 scale (0 no effect, 100 complete control), approximately ten days
[17] = 125 g ai/ha, 0 to 100 scale (0 no effect, 100 complete control)
[18] = 500 g ai/ha, 0 to 100 scale, 0 is no effect, 100 is complete control
[19] = Flood (flooded paddy test), 125 g ai/ha, visual rating after 13 to 15 days

Cc1nn(-c2ccc(F)cc2)nc1Cn1ccc(C(F)(F)F)n1 [Compound 2]
Plant response rating, Rice [1, 13]: 0
Plant response rating, Rice [1, 14]: 0
Plant response rating, Sedge, Umbrella [2, 13]: 0
Plant response rating, Sedge, Umbrella [2, 14]: 70
Barnyardgrass plant response rating [3, 15]: 0
Barnyardgrass plant response rating [3, 16]: 10
Plant response rating, Barnyardgrass [3, 17]: 0
Plant response rating, Barnyardgrass [3, 18]: 10
Plant response rating, Barnyardgrass [4, 13]: 0
Plant response rating, Barnyardgrass [4, 14]: 0
Foxtail, Giant plant response rating [5, 15]: 10
Foxtail, Giant plant response rating [5, 16]: 20
Plant response rating, Foxtail, Giant [5, 17]: 10
Plant response rating, Foxtail, Giant [5, 18]: 50
Pigweed plant response rating [6, 15]: 30
Pigweed plant response rating [6, 16]: 90
Plant response rating, Pigweed [6, 17]: 0
Plant response rating, Pigweed [6, 18]: 60
Wheat plant response rating [7, 15]: 0
Wheat plant response rating [7, 16]: 10
Plant response rating, Wheat [7, 17]: 0
Plant response rating, Wheat [7, 18]: 0
Plant response rating, Ducksalad [8, 13]: 0
Plant response rating, Ducksalad [8, 14]: 0
Corn plant response rating [9, 15]: 10
Corn plant response rating [9, 16]: 10
Plant response rating, Corn [9, 17]: 0
Plant response rating, Corn [9, 18]: 0
Velvetleaf plant response rating [10, 15]: 0
Velvetleaf plant response rating [10, 16]: 0
Plant response rating, Velvetleaf [10, 17]: 0
Plant response rating, Velvetleaf [10, 18]: 0
Crabgrass, Large plant response rating [11, 15]: 10
Crabgrass, Large plant response rating [11, 16]: 20
Plant response rating, Crabgrass, Large [11, 17]: 10
Plant response rating, Crabgrass, Large [11, 18]: 90
Morningglory plant response rating [12, 15]: 10
Morningglory plant response rating [12, 16]: 20
Plant response rating, Morningglory [12, 17]: 0
Plant response rating, Morningglory [12, 18]: 0

Cc1nn(-c2ccc(C(F)(F)F)cn2)nc1Cn1ccc(C(F)(F)F)n1 [Compound 7]
Plant response rating, Rice [1, 13]: 0
Plant response rating, Rice [1, 19]: 0
Plant response rating, Rice [1, 14]: 15
Plant response rating, Rice ([1]; Flood, 31 g ai/ha): 0
Plant response rating, Sedge, Umbrella [2, 13]: 40
Plant response rating, Sedge, Umbrella [2, 19]: 50
Plant response rating, Sedge, Umbrella [2, 14]: 85
Plant response rating, Sedge, Umbrella ([2]; Flood, 31 g ai/ha): 30
Barnyardgrass plant response rating [3, 15]: 30
Barnyardgrass plant response rating [3, 16]: 90
Plant response rating, Barnyardgrass [3, 17]: 40
Plant response rating, Barnyardgrass [3, 18]: 100
Plant response rating, Barnyardgrass [4, 13]: 0
Plant response rating, Barnyardgrass [4, 19]: 0
Plant response rating, Barnyardgrass [4, 14]: 20
Plant response rating, Barnyardgrass ([4]; Flood, 31 g ai/ha): 0
Foxtail, Giant plant response rating [5, 15]: 50
Foxtail, Giant plant response rating [5, 16]: 90
Plant response rating, Foxtail, Giant [5, 17]: 90
Plant response rating, Foxtail, Giant [5, 18]: 100
Pigweed plant response rating [6, 15]: 100
Pigweed plant response rating [6, 16]: 100
Plant response rating, Pigweed [6, 17]: 100
Plant response rating, Pigweed [6, 18]: 100
Wheat plant response rating [7, 15]: 0
Wheat plant response rating [7, 16]: 20
Plant response rating, Wheat [7, 17]: 0
Plant response rating, Wheat [7, 18]: 0
Plant response rating, Ducksalad [8, 13]: 0
Plant response rating, Ducksalad [8, 19]: 30
Plant response rating, Ducksalad [8, 14]: 70
Plant response rating, Ducksalad ([8]; Flood, 31 g ai/ha): 0
Corn plant response rating [9, 15]: 10
Corn plant response rating [9, 16]: 50
Plant response rating, Corn [9, 17]: 0
Plant response rating, Corn [9, 18]: 30
Velvetleaf plant response rating [10, 15]: 30
Velvetleaf plant response rating [10, 16]: 70
Plant response rating, Velvetleaf [10, 17]: 30
Plant response rating, Velvetleaf [10, 18]: 60
Crabgrass, Large plant response rating [11, 15]: 70
Crabgrass, Large plant response rating [11, 16]: 90
Plant response rating, Crabgrass, Large [11, 17]: 100
Plant response rating, Crabgrass, Large [11, 18]: 100
Morningglory plant response rating [12, 15]: 90
Morningglory plant response rating [12, 16]: 90
Plant response rating, Morningglory [12, 17]: 30
Plant response rating, Morningglory [12, 18]: 80
